# Data reported in paper PMC4581723, “Evaluation of In Vitro Activity of the Class I PI3K Inhibitor Buparlisib (BKM120) in Pediatric Bone and Soft Tissue Sarcomas” (PLoS ONE, 2015).
# Read-outs that look alike come from different tables or passages of the source.
# Experiments:
# KHOS = assay: Cell viability assay (MTT), 72 h; type: cell-based; details: KHOS (OS), PIK3CA WT, read-out: Buparlisib cell viability IC50
# MNNG = assay: Cell viability assay (MTT), 72 h; type: cell-based; details: MNNG (OS), read-out: Buparlisib cell viability IC50
# TC-32 = assay: Cell viability assay (MTT), 72 h; type: cell-based; details: Homo sapiens, TC-32 (ES), PIK3CA WT, read-out: Buparlisib cell viability IC50
# SKES = assay: Cell viability assay (MTT), 72 h; type: cell-based; details: SKES (ES), PIK3CA WT, read-out: Buparlisib cell viability IC50
# A673 = assay: Cell viability assay (MTT), 72 h; type: cell-based; details: Homo sapiens, A673 (ES), PIK3CA WT, read-out: Buparlisib cell viability IC50
# 6647 = assay: Cell viability assay (MTT), 72 h; type: cell-based; details: 6647 (ES), PIK3CA WT, read-out: Buparlisib cell viability IC50
# KHOS 240S = assay: Cell viability assay (MTT), 72 h; type: cell-based; details: KHOS 240S (OS), read-out: Buparlisib cell viability IC50
# cleaved PARP = assay: Immunoblot of PARP cleavage (apoptosis); type: cell-based
# Text: The primary antibodies used for these studies were rabbit anti-PTEN, rabbit anti-phospho-Akt (Ser473), rabbit anti-phospho-Akt (Thr308), mouse anti-Akt (pan), rabbit anti-phospho-p44/42 MAPK (Erk1/2) (T202/[…] on Erk1, […]/[…] on Erk2), mouse anti-p44/42 MAPK (Erk1/2), mouse anti-phospho-p70 S6 Kinase (Thr389), rabbit anti-p70 S6 Kinase, rabbit anti-phospho-4E-BP1 (Thr37/46), rabbit anti-4E-BP1, rabbit anti-STAT3 (Y705), mouse anti-STAT3, and rabbit anti-cleaved PARP from Cell Signaling Technology; and mouse anti-β-actin from Sigma. Secondary antibodies conjugated to HRP were sheep anti-mouse IgG from GE Healthcare and goat anti-rabbit IgG from Santa Cruz Biotechnology. Secondary antibodies conjugated to infrared dyes were IRDye 800CW goat anti-mouse IgG and IRDye 680RD goat anti-rabbit IgG from LI-COR Biosciences. Fluorescent westerns were imaged using the Odyssey Infrared Imaging System (LI-COR Biosciences). Signals were quantified by measuring the integrated intensity values of each band using Odyssey software (LI-COR Biosciences). […] This occurs as a result of the ability of buparlisib to inhibit tubulin polymerization at higher concentrations.
# RD = assay: Cell viability assay (MTT), 72 h; type: cell-based; details: Homo sapiens, RD (RMS), PIK3CA WT, read-out: Buparlisib cell viability IC50
# phospho-Akt (S473) = assay: Immunoblot (quantitative) of Akt phosphorylation; type: cell-based; details: for IC50: 1 h treatment
# Protocol: Cells were incubated for approximately one hour on ice in lysis buffer (50 mM Tris pH 7.6, 0.5% NP-40, 10% glycerol, 30 mM NaCl, 1 mM EDTA) supplemented with Complete Mini EDTA-free protease inhibitor cocktail (Roche), 1 mM Na3VO4, and 1 mM NaF. […] Secondary antibodies conjugated to HRP were sheep anti-mouse IgG from GE Healthcare and goat anti-rabbit IgG from Santa Cruz Biotechnology. Secondary antibodies conjugated to infrared dyes were IRDye 800CW goat anti-mouse IgG and IRDye 680RD goat anti-rabbit IgG from LI-COR Biosciences. Fluorescent westerns were imaged using the Odyssey Infrared Imaging System (LI-COR Biosciences). Signals were quantified by measuring the integrated intensity values of each band using Odyssey software (LI-COR Biosciences).
# We next evaluated the ability of buparlisib to inhibit cellular signaling downstream of PI3K. Increasing doses were added to cells and phosphorylation of signaling molecules was examined by immunoblot after one hour of treatment (Fig 2A). […] Phospho-Akt levels were normalized to levels of total Akt and fit to dose-response curves to calculate the half maximal inhibitory concentration (IC50) (Fig 2B).
# Each data point represents the average of at least three independent experiments.
# HT161 = assay: Cell viability assay (MTT), 72 h; type: cell-based; details: HT161 (OS), PIK3CA WT, read-out: Buparlisib cell viability IC50
# PI3K = tested on: PI3K; set-up: method as in PMID 22188813; details: cited from earlier work
# A4573 = assay: Cell viability assay (MTT), 72 h; type: cell-based; details: A4573 (ES), PIK3CA WT, read-out: Buparlisib cell viability IC50
# TC-248 = assay: Cell viability assay (MTT), 72 h; type: cell-based; details: TC-248 (ES), PIK3CA WT, read-out: Buparlisib cell viability IC50
# TC-174 = assay: Cell viability assay (MTT), 72 h; type: cell-based; details: TC-174 (ES), PIK3CA WT, read-out: Buparlisib cell viability IC50
# 5838 = assay: Cell viability assay (MTT), 72 h; type: cell-based; details: 5838 (ES), PIK3CA WT, read-out: Buparlisib cell viability IC50
# SJCRH30 = assay: Cell viability assay (MTT), 72 h; type: cell-based; details: SJCRH30 (RMS), PIK3CA WT, read-out: Buparlisib cell viability IC50
# TTC-475 = assay: Cell viability assay (MTT), 72 h; type: cell-based; details: TTC-475 (ES), PIK3CA WT, read-out: Buparlisib cell viability IC50
# SK-N-MC = assay: Cell viability assay (MTT), 72 h; type: cell-based; details: Homo sapiens, SK-N-MC (ES), PIK3CA WT, read-out: Buparlisib cell viability IC50
# A204 = assay: Cell viability assay (MTT), 72 h; type: cell-based; details: Homo sapiens, A204 (RMS), PIK3CA WT, read-out: Buparlisib cell viability IC50
smiles,measurement,setting,value
Nc1cc(C(F)(F)F)c(-c2cc(N3CCOCC3)nc(N3CCOCC3)n2)cn1 [Buparlisib],IC50,KHOS,1570 nM
same,IC50,MNNG,1600 nM
same,IC50,TC-32,972 nM
same,IC50,SKES,822 nM
same,IC50,A673,1780 nM
same,IC50,6647,1010 nM
same,IC50,KHOS 240S,1170 nM
same,concentrations resulting in increased PARP cleavage (apoptosis),"cleaved PARP; 24 hours of drug treatment, sarcoma cell lines",greater than 1.0 μM
same,induction of apoptosis (PARP cleavage),"cleaved PARP; ES cell lines, 24 h",potent induction of apoptosis
same,induction of apoptosis (PARP cleavage),"cleaved PARP; OS and RMS cell lines, 24 h",modest
same,apoptosis as measured by PARP cleavage,"cleaved PARP; combination with NVP-AEW541, A4573 cells, all dose levels, 24 hours",increased apoptosis
same,apoptosis (PARP cleavage),"cleaved PARP; combination with rapamycin, A4573 cells, 24 h",did not increase apoptosis
same,apoptosis as measured by PARP cleavage compared to buparlisib alone,"cleaved PARP; combined with trametinib, A673 cells, 24 h",no increase in apoptosis
same,IC50,RD,1070 nM
same,IC50,"phospho-Akt (S473); 1 h, 6647 (ES), phospho-Akt S473 normalized to total Akt, read-out: Buparlisib Akt phosphorylation IC50",568 nM
same,IC50,"phospho-Akt (S473); 1 h, HOS (OS), phospho-Akt S473 normalized to total Akt, read-out: Buparlisib Akt phosphorylation IC50",222 nM
same,IC50,"phospho-Akt (S473); 1 h, KHOS (OS), phospho-Akt S473 normalized to total Akt, read-out: Buparlisib Akt phosphorylation IC50",109 nM
same,IC50,"phospho-Akt (S473); 1 h, MNNG (OS), phospho-Akt S473 normalized to total Akt, read-out: Buparlisib Akt phosphorylation IC50",296 nM
same,IC50,"phospho-Akt (S473); 1 h, RD (RMS), phospho-Akt S473 normalized to total Akt, read-out: Buparlisib Akt phosphorylation IC50",166 nM
same,IC50,"phospho-Akt (S473); 1 h, SJCRH30 (RMS), phospho-Akt S473 normalized to total Akt, read-out: Buparlisib Akt phosphorylation IC50",200 nM
same,IC50,"phospho-Akt (S473); 1 h, TC-174 (ES), phospho-Akt S473 normalized to total Akt, read-out: Buparlisib Akt phosphorylation IC50",313 nM
same,IC50,"phospho-Akt (S473); 1 h, range over the cell lines tested, largest values in cell lines that lack PTEN expression, read-out: phospho-Akt (S473) IC50, range over cell lines",64 to 916 nM
same,IC50,"phospho-Akt (S473); A4573, 1 h, A4573 (ES), phospho-Akt S473 normalized to total Akt, read-out: Buparlisib Akt phosphorylation IC50",916 nM
same,IC50,"phospho-Akt (S473); Homo sapiens, A204, 1 h, A204 (RMS), phospho-Akt S473 normalized to total Akt, read-out: Buparlisib Akt phosphorylation IC50",63.7 nM
same,IC50,"phospho-Akt (S473); Homo sapiens, MCF7, 1 h, MCF-7 (breast), PIK3CA E545K, phospho-Akt S473 normalized to total Akt, read-out: Buparlisib Akt phosphorylation IC50",251 nM
same,IC50,"phospho-Akt (S473); Homo sapiens, TC-32, 1 h, TC-32 (ES), phospho-Akt S473 normalized to total Akt, read-out: Buparlisib Akt phosphorylation IC50",280 nM
same,IC50,"phospho-Akt (S473); KHOS-240S, 1 h, KHOS 240S (OS), phospho-Akt S473 normalized to total Akt, read-out: Buparlisib Akt phosphorylation IC50",198 nM
same,rapamycin-mediated Akt activation,"phospho-Akt (S473); buparlisib added to rapamycin, A4573 cells",reduced rapamycin-mediated Akt activation
same,Phosphorylation of Akt at serine 473 and threonine 308,"phospho-Akt (S473); increasing doses, one hour of treatment, TC-32, KHOS, RD",inhibited
same,IC50,HT161,1080 nM
same,specificity to PI3K versus other protein kinases,PI3K,at least 50 fold
same,IC50,A4573,1560 nM
same,IC50,TC-248,816 nM
same,IC50,TC-174,1040 nM
same,IC50,5838,1610 nM
same,IC50,SJCRH30,1000 nM
same,IC50,TTC-475,1020 nM
same,IC50,SK-N-MC,899 nM
same,IC50,A204,526 nM
